Active and inactive are the calls of the source. No cut-off for these calls is given here.
Tests used:
[1] = target: T1, Pyridoxine-5'-phosphate oxidase (Mus musculus) (UniProt Q91XF0); test: Inhibition of pyridoxine phosphate oxidase in mouse TA3 cells assessed as inhibition of 1 x 10^-7 M pyridoxal-induced cell growth; type: cell-based
T1 sequence (whole entry): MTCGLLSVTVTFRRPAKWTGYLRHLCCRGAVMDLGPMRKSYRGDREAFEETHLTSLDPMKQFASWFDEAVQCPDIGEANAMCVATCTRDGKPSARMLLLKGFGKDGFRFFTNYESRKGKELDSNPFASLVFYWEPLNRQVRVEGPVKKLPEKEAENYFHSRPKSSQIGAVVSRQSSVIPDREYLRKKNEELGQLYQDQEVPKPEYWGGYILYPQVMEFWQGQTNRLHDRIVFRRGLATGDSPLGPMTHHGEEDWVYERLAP

[2] = target: T1, Pyridoxine-5'-phosphate oxidase (Mus musculus); test: Inhibition of pyridoxine phosphate oxidase in mouse TA3 cells assessed as inhibition of 10^-5 M pyridoxal-induced cell growth; type: cell-based
[3] = target: T2, Pyridoxine-5'-phosphate oxidase (Homo sapiens) (UniProt Q9NVS9); test: Competitive inhibition of pyridoxine phosphate oxidase (unknown origin) assessed as oxidation of pyridoxol 5'-phosphate by Lineweaver-Burk plot analysis
T2 sequence (whole entry): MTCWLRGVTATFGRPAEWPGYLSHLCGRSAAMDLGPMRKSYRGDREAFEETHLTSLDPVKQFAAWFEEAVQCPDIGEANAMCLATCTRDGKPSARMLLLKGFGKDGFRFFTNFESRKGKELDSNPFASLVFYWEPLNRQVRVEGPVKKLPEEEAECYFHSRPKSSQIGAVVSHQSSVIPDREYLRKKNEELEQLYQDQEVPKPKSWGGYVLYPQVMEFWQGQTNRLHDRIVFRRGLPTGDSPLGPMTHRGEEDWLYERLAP

[4] = target: T3, Pyridoxal kinase (Homo sapiens, UniProt O00764); test: Competitive inhibition of pyridoxal phosphokinase (unknown origin)
T3 sequence (O00764 whole entry): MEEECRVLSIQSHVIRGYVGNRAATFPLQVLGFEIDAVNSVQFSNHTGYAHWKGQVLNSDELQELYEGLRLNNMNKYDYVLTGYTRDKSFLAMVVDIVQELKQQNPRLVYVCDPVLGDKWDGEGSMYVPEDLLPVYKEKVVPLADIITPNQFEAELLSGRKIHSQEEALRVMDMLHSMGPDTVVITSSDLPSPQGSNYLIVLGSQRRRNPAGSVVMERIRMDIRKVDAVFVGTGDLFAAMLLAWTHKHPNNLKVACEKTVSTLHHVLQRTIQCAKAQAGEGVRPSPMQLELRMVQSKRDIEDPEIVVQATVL

[5] = target: T3, Pyridoxal kinase; test: Non-competitive inhibition of pyridoxal phosphokinase (unknown origin)
[6] = target: T1, Pyridoxine-5'-phosphate oxidase (Mus musculus); test: Inhibition of pyridoxine phosphate oxidase in mouse TA3 cells assessed as inhibition of 1 x 10^-7 M pyridoxal-induced cell growth at 10^-4 M; type: cell-based
[7] = target: T4, Pyridoxine-5'-phosphate oxidase (Homo sapiens, UniProt Q9NVS9); test: Non-competitive inhibition of pyridoxine phosphate oxidase (unknown origin) assessed as oxidation of pyridoxol 5'-phosphate by Lineweaver-Burk plot analysis
T4 sequence (Q9NVS9 whole entry): T2 sequence (whole entry)

ID50 [1] | Compound | also measured
6.8 ×10⁻⁸ M | Cc1ncc(CO)c(C)c1O | growth inhibition (GI) [2]: inactive
0.0025 µM | C=Cc1c(CO)cnc(C)c1O | growth inhibition (GI) [2]: inactive; inhibition [3]: Active; Ki [4]: 22.5 µM
3 µM | Cc1ncc(COCc2ccccc2)c(/C=C/Cl)c1OCc1ccccc1 | 
1.5 ×10⁻⁵ M | C=C/C=C/c1c(COCc2ccccc2)cnc(C)c1OCc1ccccc1 | 
8 µM | C#Cc1c(CO)cnc(C)c1O | ID50 [2]: 9 ×10⁻⁵ M; Ki [5]: 125 µM
9.5 µM | C=C(Cl)c1c(CO)cnc(C)c1O | 
 | CC(=O)c1c(CO)cnc(C)c1O | inhibition [6]: inactive
3.8 µM | C#Cc1c(COP(=O)(O)O)cnc(C)c1O | Ki [7]: 0.55 µM
1.5 ×10⁻⁵ M | CC/C=C/c1c(COCc2ccccc2)cnc(C)c1OCc1ccccc1 | 
1.2 ×10⁻⁵ M | Cc1ncc(CO)c(/C=C/Br)c1O | 
